pIC50: −log10 of the molar value.

In assay [1] the test system is human tumor NSCLC A549 cell line. The assay can be described thus: MTT assay against human tumor NSCLC A549 cell line. It counts as cell-based. The source says:
(§1) The following in vitro results are activities of some compounds in present invention against human tumor NSCLC A549 cell line and colon LOVO cell line in MTT assay.
Background: Formazan colour is commonly taken as a measure of viable cells.

Assay [2] has as its system colon LOVO cell line. The assay can be described thus: MTT assay against colon LOVO cell line. It counts as cell-based, human.
Description: as §1

With `COc1cc2ncnc(Nc3ccc(F)c(Cl)c3)c2cc1OCCCN1CC2(CC2)C2(C1)OCCO2` [Example 20, N-(3-chloro-4-fluorophenyl)-7-methoxy-6-[3-(5,8-Dioxa-10-azadispiro[2.0.4.3]undecane)propoxy]quinazolin-4-amine], the pIC50 (in general, the negative decadic logarithm of the IC50, by convention in mol/L) in assay [1] was 10.21; in assay [2], 10.43.

In the case of `COc1cc2ncnc(Nc3ccc(F)c(Cl)c3)c2cc1OCCN1CC2(CC2)C2(C1)OCCO2` [Example 21, N-(3-chloro-4-fluorophenyl)-7-methoxy-6-[2-(5,8-Dioxa-10-azadispiro[2.0.4.3]undecane)ethoxy]quinazolin-4-amine], the figures for the pIC50 in assay [1] and in assay [2] were 10.38 and 9.86, respectively.

For the compound `COc1cc2ncnc(Nc3ccc(F)c(Cl)c3)c2cc1OCCCN1CC(=O)C2(CC2)C1` [Example 22, N-(3-chloro-4-fluorophenyl)-7-methoxy-6-[3-(5-azaspiro[2.4]heptan-7-one)propoxy]quinazolin-4-amine], the pIC50 in assay [1] is 10.44; in assay [2] it was 10.48.

In the case of `COc1cc2ncnc(Nc3ccc(F)c(Cl)c3)c2cc1OCCN1CC(=O)C2(CC2)C1` [Example 23, N-(3-chloro-4-fluorophenyl)-7-methoxy-6-[2-(5-azaspiro[2.4]heptan-7-one)ethoxy]quinazolin-4-amine], the values for the pIC50 in assay [1] and in assay [2] were 10.05 and 9.66, respectively.

In the case of `COc1cc2ncnc(Nc3ccc(F)c(Cl)c3)c2cc1OCCCN1CC(O)C2(CC2)C1` (centres unmarked) [Example 24, N-(3-chloro-4-fluorophenyl)-7-methoxy-6-[3-(5-azaspiro[2.4]heptan-7-ol)propoxy]quinazolin-4-amine], the pIC50 was 10.43 in assay [1] and 9.78 in assay [2].

On to `COc1cc2ncnc(Nc3ccc(F)c(Cl)c3)c2cc1OCCN1CC(O)C2(CC2)C1` (centres unmarked) [Example 25, N-(3-chloro-4-fluorophenyl)-7-methoxy-6-[2-(5-azaspiro[2.4]heptan-7-ol)ethoxy]quinazolin-4-amine], for which the negative-log IC50 (pIC50) was 10.24 in assay [1] and 10.02 in assay [2].

`COc1cc2ncnc(Nc3ccc(F)c(Cl)c3)c2cc1OCCCN1CC(OC)C2(CC2)C1` (centres unmarked) [Example 26, N-(3-chloro-4-fluorophenyl)-7-methoxy-6-[3-(7-methoxy-5-azaspiro[2.4]heptane)propoxy]quinazolin-4-amine]: the figures for the pIC50 in assay [1] and in assay [2] were 10.04 and 10.42, respectively.

Regarding `COc1cc2ncnc(Nc3ccc(F)c(Cl)c3)c2cc1OCCN1CC(OC)C2(CC2)C1` (centres unmarked) [Example 27, N-(3-chloro-4-fluorophenyl)-7-methoxy-6-[2-(7-methoxy-5-azaspiro[2.4]heptane)ethoxy]quinazolin-4-amine], the pIC50 in assay [1] was 9.67; in assay [2], 10.01.

On to `C#Cc1cccc(Nc2ncnc3cc(OC)c(OCCN4CC5(CC5)C5(C4)OCCO5)cc23)c1` [Example 28, N-(3-ethynylphenyl)-7-methoxy-6-[2-(5,8-Dioxa-10-azadispiro[2.0.4.3]undecane)ethoxy]quinazolin-4-amine], for which the pIC50 in assay [1] is 10.02; in assay [2], 10.42.

On to `C#Cc1cccc(Nc2ncnc3cc(OC)c(OCCN4CC(=O)C5(CC5)C4)cc23)c1` [Example 29, N-(3-ethynylphenyl)-7-methoxy-6-[2-(5-azaspiro[2.4]heptan-7-one)ethoxy]quinazolin-4-amine], for which the pIC50 in assay [1] is 9.98; in assay [2] it was 10.03.

`C#Cc1cccc(Nc2ncnc3cc(OC)c(OCCN4CC(O)C5(CC5)C4)cc23)c1` (centres unmarked) [Example 30, N-(3-ethynylphenyl)-7-methoxy-6-[2-(5-azaspiro[2.4]heptan-7-ol)ethoxy]quinazolin-4-amine]: the results for the pIC50 in assay [1] and in assay [2] were 10.13 and 10.57, respectively.

Turning to `COc1cc2ncnc(Nc3cccc(C(F)(F)F)c3)c2cc1OCCN1CC2(CC2)C2(C1)OCCO2` [Example 31, N-(3-trifluoromethylphenyl)-7-methoxy-6-[2-(5,8-Dioxa-10-azadispiro[2.0.4.3]undecane)ethoxy]quinazolin-4-amine], the results for the pIC50 in assay [1] and in assay [2] were 10.26 and 10.01, respectively.

Consider `COc1cc2ncnc(Nc3cccc(Br)c3)c2cc1OCCN1CC2(CC2)C2(C1)OCCO2` [Example 32, N-(3-bromophenyl)-7-methoxy-6-[2-(5,8-Dioxa-10-azadispiro[2.0.4.3]undecane)ethoxy]quinazolin-4-amine], for which the pIC50 in assay [1] is 10.55; in assay [2], 10.49.

For the compound `COc1cc2ncnc(Nc3ccc(Cl)c(Cl)c3)c2cc1OCCN1CC2(CC2)C2(C1)OCCO2` [Example 33, N-(3,4-dichlorophenyl)-7-methoxy-6-[2-(5,8-Dioxa-10-azadispiro[2.0.4.3]undecane)ethoxy]quinazolin-4-amine], the values for the pIC50 in assay [1] and in assay [2] were 10.28 and 9.93, respectively.

Turning to `COc1cc2ncnc(Nc3ccc(F)c(Cl)c3)c2cc1OCCCN1CC2(CC2)C2(C1)OCCS2` (centres unmarked) [Example 34, N-(3-chloro-4-fluorophenyl)-7-methoxy-6-[3-(5,8-Oxathiolane-10-azadispiro[2.0.4.3]undecane)propoxy]quinazolin-4-amine], the pIC50 was 10.47 in assay [1] and 9.77 in assay [2].

As for `COc1cc2c(Nc3ccc(Br)cc3F)ncnc2cc1OCCCN1CC2(CC2)C2(C1)OCCO2` [Example 35, N-(2-fluoro-4-bromophenyl)-6-methoxy-7-[3-(5,8-Dioxa-10-azadispiro[2.0.4.3]undecane)propoxy]quinazolin-4-amine], the pIC50 is 10.40 in assay [1] and 10.50 in assay [2].

Regarding `COc1cc2c(Nc3ccc(Br)cc3F)ncnc2cc1OCCN1CC2(CC2)C2(C1)OCCO2` [Example 36, N-(2-fluoro-4-bromophenyl)-6-methoxy-7-[2-(5,8-Dioxa-10-azadispiro[2.0.4.3]undecane)ethoxy]quinazolin-4-amine], the pIC50 in assay [1] was 10.66; in assay [2] it was 10.24.

Take `COc1cc2ncnc(Nc3ccc(F)c(Cl)c3)c2cc1OCCN1CC2(CC2)C2(C1)OCCS2` (centres unmarked) [Example 37, N-(3-chloro-4-fluorophenyl)-7-methoxy-6-[2-(5,8-Oxathiolane-10-azadispiro[2.0.4.3]undecane)ethoxy]quinazolin-4-amine]: the pIC50 was 9.88 in assay [1] and 10.26 in assay [2].

Take `COc1cc2ncnc(Nc3ccc(F)c(Cl)c3)c2cc1OCCN1CC2(CC2)C2(C1)OCCCO2` [Example 38, N-(3-chloro-4-fluorophenyl)-7-methoxy-6-[2-(5,9-Dioxa-11-azadispiro[2.0.4.3]dodecane)ethoxy]quinazolin-4-amine]: the pIC50 is 10.14 in assay [1] and 9.84 in assay [2].

Turning to `COc1cc2ncnc(Nc3ccc(F)c(Cl)c3)c2cc1OCCN1CC2(CC2)C2(C1)OCC(C)(C)CO2` [Example 39, N-(3-chloro-4-fluorophenyl)-7-methoxy-6-[2-(5,9-Dioxa-7,7-dimethyl-11-azadispiro[2.0.4.3]dodecane)ethoxy]quinazolin-4-amine], the pIC50 in assay [1] is 10.64; in assay [2], 10.52.

In the case of `COc1cc2ncnc(Nc3ccc(F)c(Cl)c3)c2cc1OCCCN1CC2(CC2)C2(C1)OCC(C)(C)CO2` [Example 41, N-(3-chloro-4-fluorophenyl)-7-methoxy-6-[3-(5,9-Dioxa-7,7-dimethyl-11-azadispiro[2.0.4.3]dodecane)propoxy]quinazolin-4-amine], the results for the pIC50 in assay [1] and in assay [2] were 10.12 and 9.89, respectively.

In the case of “N-(3-chloro-4-fluorophenyl)-7-methoxy-6-[3-(5,9-Dioxa-11-azadispiro[2.0.4.3]dodecane)propoxy]quinazolin-4-amine [Example 40]”, the pIC50 was 10.38 in assay [1] and 10.54 in assay [2].

(Values after US7977346B2, “Spiro compounds and methods of use” (priority 2006, dated 2011).)
